Experimental data reported in patent US6376426B1, “Herbicidal 3-(heterocycl-1-yl)-uracils” (BASF Aktiengesellschaft, priority 1999, dated 2002).

Experiments:
Type in all cases: in vivo
Triticum aestivum [1] = assay: Pre-emergence herbicidal test, TRZAW; conditions: 21 days after spraying
Protocol: (§1) To evaluate their herbicidal activity, compounds according to the invention are tested using a representative range of plants:
(§2) The pre-emergence tests involve spraying a liquid formulation of the compound onto the soil in which the seeds of the plant species mentioned above has recently been sown.
(§3) The soil used in the tests is a prepared horticultural loam. The formulations used in the tests are prepared from solutions of the test compounds in acetone containing 0.4% by weight of an alkylphenol/ethylene oxide condensate available under the trade mark TRITON X-155. […] In these tests untreated sown soil are used as controls.
(§4) The herbicidal effects of the test compounds are assessed visually twenty-one days after spraying the foliage and the soil and are recorded on a 0-9 scale. A rating 0 indicates growth as untreated control, a rating 9 indicates death. An increase of 1 unit on the linear scale approximates to a 10% increase in the level of effect.

Zea mays [2] = assay: Pre-emergence herbicidal test, ZEAMX; parameters: key to herbicidal effect (0-9 scale) ZEAMX / herbicidal rating ZEAMX: A rating 0 indicates growth as untreated control; a rating 9 indicates death; conditions: for herbicidal effect (0-9 scale) ZEAMX: PRE, 21 days after spraying
Protocol: as §1, §2, §3, §4

Setaria viridis [3] = assay: Pre-emergence herbicidal test, SETVI; parameters: key to herbicidal effect (0-9 scale) SETVI / herbicidal rating SETVI: A rating 0 indicates growth as untreated control; a rating 9 indicates death; conditions: for herbicidal effect (0-9 scale) SETVI: PRE, 21 days after spraying
Protocol: as §1, §2, §3, §4

Echinochloa crus-galli [4] = assay: Pre-emergence herbicidal test, ECHCG; conditions: 21 days after spraying
Protocol: as §1, §2, §3, §4

Alopecurus myosuroides [5] = assay: Pre-emergence herbicidal test, ALOMY; conditions: PRE, 21 days after spraying
Protocol: as §1, §2, §3, §4

Ipomoea hederacea [6] = assay: Pre-emergence herbicidal test, IPOHE; parameters: key: A rating 0 indicates growth as untreated control; a rating 9 indicates death; conditions: 21 days after spraying
Protocol: as §1, §2, §3, §4

Galium aparine [7] = assay: Pre-emergence herbicidal test, GALAP; conditions: PRE, 21 days after spraying
Protocol: as §1, §2, §3, §4

Abutilon theophrasti [8] = assay: Pre-emergence herbicidal test, ABUTH; parameters: key to herbicidal effect (0-9 scale) ABUTH / herbicidal rating ABUTH: A rating 0 indicates growth as untreated control; a rating 9 indicates death; conditions: for herbicidal effect (0-9 scale) ABUTH: PRE, 21 days after spraying
Protocol: as §1, §2, §3, §4

Stellaria media [9] = assay: Pre-emergence herbicidal test, STEME; parameters: key to herbicidal effect (0-9 scale) STEME / herbicidal rating STEME: A rating 0 indicates growth as untreated control; a rating 9 indicates death; conditions: PRE, 21 days after spraying
Protocol: as §1, §2, §3, §4

Matricaria inodora [10] = assay: Pre-emergence herbicidal test, MATIN; parameters: key to herbicidal effect (0-9 scale) MATIN / herbicidal rating MATIN: A rating 0 indicates growth as untreated control; a rating 9 indicates death; conditions: for herbicidal effect (0-9 scale) MATIN: PRE, 21 days after spraying
Protocol: as §1, §2, §3, §4

Triticum aestivum [11] = assay: Post-emergence herbicidal test, TRZAW; parameters: key to herbicidal effect (0-9 scale) TRZAW: A rating 0 indicates growth as untreated control; a rating 9 indicates death; conditions: for herbicidal effect (0-9 scale) TRZAW: POST, 21 days after spraying
Protocol: as §1
(§5) […] After spraying, the plants are placed on greenhouse benches and are cared for in the usual manner, commensurate with conventional greenhouse practices.
as §4

Zea mays [12] = assay: Post-emergence herbicidal test, ZEAMX; conditions: 21 days after spraying
Protocol: as §1, §5, §4

Setaria viridis [13] = assay: Post-emergence herbicidal test, SETVI; parameters: key to herbicidal effect (0-9 scale) SETVI / herbicidal rating SETVI: A rating 0 indicates growth as untreated control; a rating 9 indicates death; conditions: for herbicidal effect (0-9 scale) SETVI: POST, 21 days after spraying
Protocol: as §1, §5, §4

Echinochloa crus-galli [14] = assay: Post-emergence herbicidal test, ECHCG; conditions: 21 days after spraying
Protocol: as §1, §5, §4

Alopecurus myosuroides [15] = assay: Post-emergence herbicidal test, ALOMY; conditions: 21 days after spraying
Protocol: as §1, §5, §4

Ipomoea hederacea [16] = assay: Post-emergence herbicidal test, IPOHE; parameters: key to herbicidal effect (0-9 scale) IPOHE / herbicidal rating IPOHE: A rating 0 indicates growth as untreated control; a rating 9 indicates death; conditions: POST, 21 days after spraying
Protocol: as §1, §5, §4

Galium aparine [17] = assay: Post-emergence herbicidal test, GALAP; parameters: key to herbicidal effect (0-9 scale) GALAP / herbicidal rating GALAP: A rating 0 indicates growth as untreated control; a rating 9 indicates death; conditions: for herbicidal effect (0-9 scale) GALAP: POST, 21 days after spraying
Protocol: as §1, §5, §4

Abutilon theophrasti [18] = assay: Post-emergence herbicidal test, ABUTH; parameters: key to herbicidal effect (0-9 scale) ABUTH / herbicidal rating ABUTH: A rating 0 indicates growth as untreated control; a rating 9 indicates death; conditions: POST, 21 days after spraying
Protocol: as §1, §5, §4

Stellaria media [19] = assay: Post-emergence herbicidal test, STEME; parameters: key to herbicidal effect (0-9 scale) STEME / herbicidal rating STEME: A rating 0 indicates growth as untreated control; a rating 9 indicates death; conditions: POST, 21 days after spraying
Protocol: as §1, §5, §4

Matricaria inodora [20] = assay: Post-emergence herbicidal test, MATIN; parameters: key to herbicidal effect (0-9 scale) MATIN / herbicidal rating MATIN: A rating 0 indicates growth as untreated control; a rating 9 indicates death; conditions: POST, 21 days after spraying
Protocol: as §1, §5, §4

Cyperus = assay: Pre-emergence herbicidal test, Cyperus; conditions: 100 g/ha
Protocol: as §2, §3, §4

Ambrosia = assay: Pre-emergence herbicidal test, Ambrosia; conditions: 100 g/ha
Protocol: as §2, §3, §4

[21] = tested on: representative range of plants; assay: Pre-emergence herbicidal test, summary over the plants tested; conditions: 400 g/ha
Protocol: as §1, §2, §3, §4

[22] = tested on: representative range of plants; assay: Post-emergence herbicidal test, summary over the plants tested
Protocol: as §1, §5, §4

[23] = tested on: representative range of plants; assay: Herbicidal activity, pre- and post-emergence, overall; conditions: both in pre- and post-emergence
Protocol: as §1, §2
The soil used in the tests is a prepared horticultural loam. The formulations used in the tests are prepared from solutions of the test compounds in acetone containing 0.4% by weight of an alkylphenol/ethylene oxide condensate available under the trade mark TRITON X-155. These acetone solutions are diluted with water and the resulting formulations applied at dosage levels corresponding to 1000 g and 250 g/ha of active material per hectare in a volume equivalent to 900 litres per hectare. In these tests untreated sown soil are used as controls.
These acetone solutions are diluted with water and the resulting formulations applied at dosage levels equivalent to about 1000, 800, 400, 250 or 100 g/ha per hectare of test compound per pot. After spraying, the plants are placed on greenhouse benches and are cared for in the usual manner, commensurate with conventional greenhouse practices.
as §4

## Cn1c(C(F)(F)F)cc(=O)n(-n2ncc3cc([N+](=O)[O-])ccc32)c1=O [Example 7]
Triticum aestivum [1]; 100 g/ha
  herbicidal effect (0-9 scale) TRZAW: 1
Triticum aestivum [1]; 400 g/ha
  herbicidal effect (0-9 scale) TRZAW: 4
Zea mays [2]; 100 g/ha
  herbicidal effect (0-9 scale) ZEAMX: 0
Zea mays [2]; 400 g/ha
  herbicidal effect (0-9 scale) ZEAMX: 4
Zea mays [2]; pre-emergence, 100 g/ha
  selectivity in maize: surprisingly good selectivity
Setaria viridis [3]; 100 g/ha
  herbicidal effect (0-9 scale) SETVI: 8
Setaria viridis [3]; 400 g/ha
  herbicidal effect (0-9 scale) SETVI: 9
Setaria viridis [3]; pre-emergence, 100 g/ha
  control of Setaria: good control
Echinochloa crus-galli [4]; 100 g/ha
  herbicidal effect (0-9 scale) ECHCG: 7
Echinochloa crus-galli [4]; 400 g/ha
  herbicidal effect (0-9 scale) ECHCG: 8
Alopecurus myosuroides [5]; 100 g/ha
  herbicidal effect (0-9 scale) ALOMY: 3
Alopecurus myosuroides [5]; 400 g/ha
  herbicidal effect (0-9 scale) ALOMY: 6
Ipomoea hederacea [6]; 100 g/ha
  herbicidal effect (0-9 scale) IPOHE: 7
Ipomoea hederacea [6]; 400 g/ha
  herbicidal effect (0-9 scale) IPOHE: 9
Galium aparine [7]; 100 g/ha
  herbicidal effect (0-9 scale) GALAP: 4
Galium aparine [7]; 400 g/ha
  herbicidal effect (0-9 scale) GALAP: 8
Abutilon theophrasti [8]; 100 g/ha
  herbicidal effect (0-9 scale) ABUTH: 9
Abutilon theophrasti [8]; 400 g/ha
  herbicidal effect (0-9 scale) ABUTH: 9
Abutilon theophrasti [8]; pre-emergence, 100 g/ha
  control of Abutilon: good control
Stellaria media [9]; 100 g/ha
  herbicidal effect (0-9 scale) STEME: 5
Stellaria media [9]; 400 g/ha
  herbicidal effect (0-9 scale) STEME: 9
Matricaria inodora [10]; 100 g/ha
  herbicidal effect (0-9 scale) MATIN: 9
Matricaria inodora [10]; 400 g/ha
  herbicidal effect (0-9 scale) MATIN: 9
Matricaria inodora [10]; pre-emergence, 100 g/ha
  control of Matricaria: good control
Triticum aestivum [11]; 25 g/ha
  herbicidal effect (0-9 scale) TRZAW: 0
Triticum aestivum [11]; 100 g/ha
  herbicidal effect (0-9 scale) TRZAW: 1
Triticum aestivum [11]; 400 g/ha
  herbicidal effect (0-9 scale) TRZAW: 3
Triticum aestivum [11]; post-emergence, 100 g/ha
  wheat tolerance: good wheat tolerance
Zea mays [12]; 25 g/ha
  herbicidal effect (0-9 scale) ZEAMX: 2
Zea mays [12]; 100 g/ha
  herbicidal effect (0-9 scale) ZEAMX: 3
Zea mays [12]; 400 g/ha
  herbicidal effect (0-9 scale) ZEAMX: 5
Setaria viridis [13]; 25 g/ha
  herbicidal effect (0-9 scale) SETVI: 8
Setaria viridis [13]; 100 g/ha
  herbicidal effect (0-9 scale) SETVI: 9
Setaria viridis [13]; 400 g/ha
  herbicidal effect (0-9 scale) SETVI: 9
Setaria viridis [13]; post-emergence, 100 g/ha
  control of Setaria: excellent control
Echinochloa crus-galli [14]; 25 g/ha
  herbicidal effect (0-9 scale) ECHCG: 2
Echinochloa crus-galli [14]; 100 g/ha
  herbicidal effect (0-9 scale) ECHCG: 7
Echinochloa crus-galli [14]; 400 g/ha
  herbicidal effect (0-9 scale) ECHCG: 8
Alopecurus myosuroides [15]; 25 g/ha
  herbicidal effect (0-9 scale) ALOMY: 2
Alopecurus myosuroides [15]; 100 g/ha
  herbicidal effect (0-9 scale) ALOMY: 4
Alopecurus myosuroides [15]; 400 g/ha
  herbicidal effect (0-9 scale) ALOMY: 6
Ipomoea hederacea [16]; 25 g/ha
  herbicidal effect (0-9 scale) IPOHE: 9
Ipomoea hederacea [16]; 100 g/ha
  herbicidal effect (0-9 scale) IPOHE: 9
Ipomoea hederacea [16]; 400 g/ha
  herbicidal effect (0-9 scale) IPOHE: 9
Galium aparine [17]; 25 g/ha
  herbicidal effect (0-9 scale) GALAP: 6
Galium aparine [17]; 100 g/ha
  herbicidal effect (0-9 scale) GALAP: 8
Galium aparine [17]; 400 g/ha
  herbicidal effect (0-9 scale) GALAP: 9
Galium aparine [17]; post-emergence, 100 g/ha
  control of Galium aparine: excellent control
Abutilon theophrasti [18]; 25 g/ha
  herbicidal effect (0-9 scale) ABUTH: 8
Abutilon theophrasti [18]; 100 g/ha
  herbicidal effect (0-9 scale) ABUTH: 9
Abutilon theophrasti [18]; 400 g/ha
  herbicidal effect (0-9 scale) ABUTH: 9
Stellaria media [19]; 25 g/ha
  herbicidal effect (0-9 scale) STEME: 4
Stellaria media [19]; 100 g/ha
  herbicidal effect (0-9 scale) STEME: 8
Stellaria media [19]; 400 g/ha
  herbicidal effect (0-9 scale) STEME: 9
Matricaria inodora [20]; 25 g/ha
  herbicidal effect (0-9 scale) MATIN: 7
Matricaria inodora [20]; 100 g/ha
  herbicidal effect (0-9 scale) MATIN: 8
Matricaria inodora [20]; 400 g/ha
  herbicidal effect (0-9 scale) MATIN: 9
Cyperus
  control of Cyperus: good control
Ambrosia
  control of Ambrosia: good control
[21]
  control of the weeds: all of the weeds except Alopecurus were well controlled
[22]; 100 g/ha
  control of all of the broadleaf weeds: excellent control
[22]; dose not given
  control of the weeds: good cross spectrum control on both broadleaf weeds and grasses except Alopecurus
  crop tolerance: no observable crop tolerance
[23]
  herbicidal performance: good performance
